Assay results from US10894784B2, “Heteroarylbenzimidazole compounds” (BAYER PHARMA AKTIENGESELLSCHAFT, priority 2015, dated 2021).
Read-outs that look alike come from different tables or passages of the source.

Target: TBK1 (Homo sapiens (Human), UniProt Q9UHD2)
Assay: TBK1 low ATP kinase assay (in vitro assay 1)
Type: biochemical
[1] = in vitro assay 1, read-out: TBK1 low ATP kinase assay IC50

TBK1, sequence (Q9UHD2 whole entry): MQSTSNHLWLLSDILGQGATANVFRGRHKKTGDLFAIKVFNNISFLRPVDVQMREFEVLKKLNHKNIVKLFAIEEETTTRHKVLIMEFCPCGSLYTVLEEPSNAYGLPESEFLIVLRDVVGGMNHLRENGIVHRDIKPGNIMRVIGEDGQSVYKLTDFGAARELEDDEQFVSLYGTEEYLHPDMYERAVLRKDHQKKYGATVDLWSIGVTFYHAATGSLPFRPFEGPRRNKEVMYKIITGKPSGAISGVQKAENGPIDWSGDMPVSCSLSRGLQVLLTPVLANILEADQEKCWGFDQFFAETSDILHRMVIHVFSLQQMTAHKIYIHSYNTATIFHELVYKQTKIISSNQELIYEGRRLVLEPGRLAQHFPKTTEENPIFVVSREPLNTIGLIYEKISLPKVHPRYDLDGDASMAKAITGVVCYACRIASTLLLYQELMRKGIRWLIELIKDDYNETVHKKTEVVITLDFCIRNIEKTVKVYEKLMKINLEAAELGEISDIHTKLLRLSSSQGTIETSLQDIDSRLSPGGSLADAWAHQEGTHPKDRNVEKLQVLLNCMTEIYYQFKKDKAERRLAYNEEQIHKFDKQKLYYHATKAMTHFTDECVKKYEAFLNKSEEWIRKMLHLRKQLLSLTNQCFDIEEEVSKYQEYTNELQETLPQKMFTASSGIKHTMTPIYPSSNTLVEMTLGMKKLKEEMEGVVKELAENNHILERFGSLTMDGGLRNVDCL

Compound	IC50 [1] [nM]	IC50 (TBK1 low ATP kinase assay IC50, in vitro assay 1) [nM]
COc1nccc(-c2ccc3nc(Nc4cc(CN5CCN(C(=O)OC(C)(C)C)CC5)ccn4)[nH]c3c2)n1 [Example 25.01.01, tert-butyl 4-[(2-{[6-(2-methoxypyrimidin-4-yl)-1H-benzimidazol-2-yl]amino}pyridin-4-yl)methyl]piperazine-1-carboxylate]	174	–
Cn1ccc(-c2ccc3nc(Nc4cc(CN5CCN(C(=O)C6CCC6)CC5)ccn4)[nH]c3c2)n1 [Example 40.04, cyclobutyl{4-[(2-{[6-(1-methyl-1H-pyrazol-3-yl)-1H-benzimidazol-2-yl]amino}pyridin-4-yl)methyl]piperazin-1-yl}methanone]	1390	–
Clc1ccccc1N1CCN(Cc2ccnc(Nc3nc4ccc(-c5noc(C6CC6)n5)cc4[nH]3)c2)CC1 [Example 22.01, N-(4-{[4-(2-chlorophenyl)piperazin-1-yl]methyl}pyridin-2-yl)-6-(5-cyclopropyl-1,2,4-oxadiazol-3-yl)-1H-benzimidazol-2-amine]	481	–
CCOc1c(-c2ccncc2OC)ccc2nc(Nc3cc(CN4CCN(C(=O)C5CCC5)CC4)ccn3)[nH]c12 [Example 51.04, cyclobutyl{4-[(2-{[7-ethoxy-6-(3-methoxypyridin-4-yl)-1H-benzimidazol-2-yl]amino}pyridin-4-yl)methyl]piperazin-1-yl}methanone]	203	–
O=C(CC(F)(F)F)N1CCN(Cc2ccnc(Nc3nc4ccc(-c5cnn(CC6CCC6)c5)cc4[nH]3)c2)CC1 [Example 59.02.01, 1-(4-{[2-({6-[1-(cyclobutylmethyl)-1H-pyrazol-4-yl]-1H-benzimidazol-2-yl}amino)pyridin-4-yl]methyl}piperazin-1-yl)-3,3,3-trifluoropropan-1-one]	–	7.56
O=C(CC(F)(F)F)N1CCN(Cc2ccnc(Nc3nc4ccc(-c5cncnc5)cc4[nH]3)c2)CC1 [Example 45.01.01, 3,3,3-trifluoro-1-{4-[(2-{[6-(pyrimidin-5-yl)-1H-benzimidazol-2-yl]amino}pyridin-4-yl)methyl]piperazin-1-yl}propan-1-one]	323	–
Cc1noc(-c2ccc3nc(Nc4cc(CN5CCN(c6cccc(F)c6)CC5)ccn4)[nH]c3c2)n1 [Example 101.09, N-(4-{[4-(3-fluorophenyl)piperazin-1-yl]methyl}pyridin-2-yl)-6-(3-methyl-1,2,4-oxadiazol-5-yl)-1H-benzimidazol-2-amine]	460	–
CC(c1ccnc(Nc2nc3ccc(-c4cc(OCC(F)(F)C(F)(F)F)ncn4)cc3[nH]2)c1)N1CCN(C(=O)OC(C)(C)C)CC1 (single isomer, unassigned) [Example 166.01, tert-butyl 4-{(1R or 1S)-1-[2-({6-[6-(2,2,3,3,3-pentafluoropropoxy)pyrimidin-4-yl]-1H-benzimidazol-2-yl}amino)pyridin-4-yl]ethyl}piperazine-1-carboxylate]	300	–
CN(C)c1ccnc(-c2ccc3nc(Nc4cc(CN5CCN(C(=O)CC(F)(F)F)CC5)ccn4)[nH]c3c2)n1 [Example 181.02, 1-(4-{[2-({6-[4-(dimethylamino)pyrimidin-2-yl]-1H-benzimidazol-2-yl}amino)pyridin-4-yl]methyl}piperazin-1-yl)-3,3,3-trifluoropropan-1-one]	152	–
CN(C)c1cnc(-c2ccc3nc(Nc4cc(CN5CCN(C(=O)CC(F)(F)F)CC5)ccn4)[nH]c3c2)cn1 [Example 144.02, 1-(4-{[2-({6-[5-(dimethylamino)pyrazin-2-yl]-1H-benzimidazol-2-yl}amino)pyridin-4-yl]methyl}piperazin-1-yl)-3,3,3-trifluoropropan-1-one]	350	–
O=C(CC(F)(F)F)N1CCN(Cc2ccnc(Nc3nc4ccc(-c5ncnc6sccc56)cc4[nH]3)c2)CC1 [Example 105.01, 3,3,3-trifluoro-1-{4-[(2-{[6-(thieno[2,3-d]pyrimidin-4-yl)-1H-benzimidazol-2-yl]amino}pyridin-4-yl)methyl]piperazin-1-yl}propan-1-one]	270	–
CC(c1ccnc(Nc2nc3ccc(-c4cc(C(F)(F)F)ncn4)c(F)c3[nH]2)c1)N1CCN(C(=O)C2(C(F)(F)F)CC2)CC1 (single isomer, unassigned) [Example 173.04, (4-{(1R or 1S)-1-[2-({7-fluoro-6-[6-(trifluoromethyl)pyrimidin-4-yl]-1H-benzimidazol-2-yl}amino)pyridin-4-yl]ethyl}piperazin-1-yl)[1-(trifluoromethyl)cyclopropyl]methanone]	149	–
Cc1nccc(-c2ccc3nc(Nc4cc(CN5CCN(C(=O)CC(F)(F)F)CC5)ccn4)[nH]c3c2)c1Cl [Example 130.02, 1-{4-[(2-{[6-(3-chloro-2-methylpyridin-4-yl)-1H-benzimidazol-2-yl]amino}pyridin-4-yl)methyl]piperazin-1-yl}-3,3,3-trifluoropropan-1-one]	190	–
CCOc1cnc(C)cc1-c1ccc2nc(Nc3cc(CN4CCN(C(=O)CC(F)(F)F)CC4)ccn3)[nH]c2c1 [Example 09.01, 1-{4-[(2-{[6-(5-ethoxy-2-methylpyridin-4-yl)-1H-benzimidazol-2-yl]amino}pyridin-4-yl)methyl]piperazin-1-yl}-3,3,3-trifluoropropan-1-one]	251	–
Cc1noc(-c2ccc3nc(Nc4cc(CN5CCN(c6ncncn6)CC5)ccn4)[nH]c3c2)n1 [Example 101.27, 6-(3-methyl-1,2,4-oxadiazol-5-yl)-N-(4-{[4-(1,3,5-triazin-2-yl)piperazin-1-yl]methyl}pyridin-2-yl)-1H-benzimidazol-2-amine]	350	–

The remaining compounds from weak to strong by IC50 [1], led by results:

IC50 [1] [nM]	IC50 (TBK1 low ATP kinase assay IC50, in vitro assay 1) [nM]	Compound
105	–	CC(C)(C)OC(=O)N1CCN(Cc2ccnc(Nc3nc4ccc(-c5ncnc(NCC6CC6)c5F)cc4[nH]3)c2)CC1 [Example 195.01, tert-butyl 4-({2-[(6-{6-[(cyclopropylmethyl)amino]-5-fluoropyrimidin-4-yl}-1H-benzimidazol-2-yl)amino]pyridin-4-yl}methyl)piperazine-1-carboxylate]
62	–	COc1c(-c2ccc3nc(Nc4cc(CN5CCN(C(=O)CC(F)(F)F)CC5)ccn4)[nH]c3c2)ncnc1N(C)CC1CC1 [Example 110.04, 1-[4-({2-[(6-{6-[(cyclopropylmethyl)(methyl)amino]-5-methoxypyrimidin-4-yl}-1H-benzimidazol-2-yl)amino]pyridin-4-yl}methyl)piperazin-1-yl]-3,3,3-trifluoropropan-1-one]
55.1	–	Cc1nccc(-c2ccc3nc(Nc4cc(C(C)N5CCN(C(=O)C6CCC6)CC5)ccn4)[nH]c3c2)n1 (single isomer, unassigned) [Example 24.05.02.B, cyclobutyl{4-[(1S or 1R)-1-(2-{[6-(2-methylpyrimidin-4-yl)-1H-benzimidazol-2-yl]amino}pyridin-4-yl)ethyl]piperazin-1-yl}methanone]
30.2	–	COc1cnccc1-c1ccc2nc(Nc3cc(CN4CCN(C(=O)C(C)(C)C)CC4)ccn3)[nH]c2c1 [Example 04.06, 1-{4-[(2-{[6-(3-methoxypyridin-4-yl)-1H-benzimidazol-2-yl]amino}pyridin-4-yl)methyl]piperazin-1-yl}-2,2-dimethylpropan-1-one]
26	–	CC(c1ccnc(Nc2nc3ccc(-c4ccnn4C)cc3[nH]2)c1)N1CCN(C(=O)C2CC2)CC1 (single isomer, unassigned) [Example 123.03, cyclopropyl{4-[(1R or 1S)-1-(2-{[6-(1-methyl-1H-pyrazol-5-yl)-1H-benzimidazol-2-yl]amino}pyridin-4-yl)ethyl]piperazin-1-yl}methanone]
13	–	COc1c(-c2ccc3nc(Nc4cc(CN5CCN(C(=O)CC(F)(F)F)CC5)ccn4)[nH]c3c2)ncnc1N(C)C [Example 107.01.03, 1-(4-{[2-({6-[6-(dimethylamino)-5-methoxypyrimidin-4-yl]-1H-benzimidazol-2-yl}amino)pyridin-4-yl]methyl}piperazin-1-yl)-3,3,3-trifluoropropan-1-one]
8.2	–	COc1c(NC2CC2)ncnc1-c1ccc2nc(Nc3cc(CN4CCN(C(=O)CC(F)(F)F)CC4)ccn3)[nH]c2c1 [Example 108.02, 1-(4-{[2-({6-[6-(cyclopropylamino)-5-methoxypyrimidin-4-yl]-1H-benzimidazol-2-yl}amino)pyridin-4-yl]methyl}piperazin-1-yl)-3,3,3-trifluoropropan-1-one]
6.71	–	O=C(C1CC1)N1CCN(Cc2ccnc(Nc3nc4ccc(-c5cnn(CC6CCC6)c5)cc4[nH]3)c2)CC1 [Example 59.02.02, (4-{[2-({6-[1-(cyclobutylmethyl)-1H-pyrazol-4-yl]-1H-benzimidazol-2-yl}amino)pyridin-4-yl]methyl}piperazin-1-yl)(cyclopropyl)methanone]
5.8	–	CC(C)(C)OC(=O)N1CCN(Cc2ccnc(Nc3nc4ccc(-c5ccnc(N)c5)cc4[nH]3)c2)CC1 [Example 138.01, tert-butyl 4-[(2-{[6-(2-aminopyridin-4-yl)-1H-benzimidazol-2-yl]amino}pyridin-4-yl)methyl]piperazine-1-carboxylate]
5.7	–	CC(c1ccnc(Nc2nc3ccc(-c4cc(Cl)ncn4)cc3[nH]2)c1)N1CCN(C(=O)OC(C)(C)C)CC1 (single isomer, unassigned) [Example 85.01, tert-Butyl 4-[(1R or 1S)-1-(2-{[6-(6-chloropyrimidin-4-yl)-1H-benzimidazol-2-yl]amino}pyridin-4-yl)ethyl]piperazine-1-carboxylate]
1.1	–	COc1c(-c2ccc3nc(Nc4cc(C(C)N5CCN(C(=O)C6CC6)CC5)ccn4)[nH]c3c2)ncnc1N1CC(F)(F)C1 (single isomer, unassigned) [Example 113.03, cyclopropyl(4-{(1R or 1S)-1-[2-({6-[6-(3,3-difluoroazetidin-1-yl)-5-methoxypyrimidin-4-yl]-1H-benzimidazol-2-yl}amino)pyridin-4-yl]ethyl}piperazin-1-yl)methanone]
0.564	–	CC(c1ccnc(Nc2nc3ccc(-c4cnn(CC5CC5(F)F)c4)cc3[nH]2)c1)N1CCN(C(=O)C2CC2)CC1 (single isomer, unassigned) [Example 55.03, cyclopropyl{4-[(1R or 1S)-1-(2-{[6-(1-{[(1RS)-2,2-difluorocyclopropyl]methyl}-1H-pyrazol-4-yl)-1H-benzimidazol-2-yl]amino}pyridin-4-yl)ethyl]piperazin-1-yl}methanone]
